PubChem BioAssay AID504322 (Emory University Molecular Libraries Screening Center, 2011)
Activity calls are given as the source filed them. No rule for the calls is given here.

System: CHOP reporter cell assay, percent of control
Experiment: CHOP reporter inhibitor potency, dose response, cell-based (AID 504322);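 also: CHO cells carrying a CHOP reporter stimulated with tunicamycin to induce ER stress; potency is for inhibition of the stress-induced reporter signal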

Compound | IC50
CCC(=O)N1N=C(c2c(-c3ccccc3)c3cc(Cl)ccc3[nH]c2=O)CC1c1ccco1 (stereo not given) | 8.96 µM (inactive)
CCc1ccc(OCC(=O)NC(NC(=S)Nc2ccc(C)cc2C)C(Cl)(Cl)Cl)cc1 (stereo not given) | 8.46 µM (inactive)
Cc1ccccc1CS(=O)(=O)c1nnc([C@H](Cc2ccccc2)NC(=O)OC(C)(C)C)o1 | 4.01 µM
CCC(C)[C@@H](NC(=O)OC(C)(C)C)c1nnc(S(=O)(=O)Cc2cccc(C)c2)o1 (stereo not given in full) | 4.78 µM
COc1cc2c(cc1OC)C(c1ccccc1)N(C(=O)CCl)CC2 (stereo not given) | 9.53 µM (inactive)
CCOC(=O)C1=C(c2ccc(OC)cc2)C(=O)c2ccccc2C1=O | 8.81 µM (inactive)
CCC1CCc2c(sc(NC(=O)c3ccoc3C)c2C(N)=O)C1 (stereo not given) | > 10 µM (inactive)
COc1ccc(OCc2n(CC(=O)OC3CC(C)CCC3C(C)C)c3ccccc3[n+]2C)cc1 (stereo not given) | > 10 µM (inactive)
Cc1cccc(Nc2nc(N)c([N+](=O)[O-])c(N3CC(C)CC(C)C3)n2)c1 (stereo not given) | > 10 µM (inactive)
Cc1nc(Nc2nc(CSc3nc4ccccc4[nH]3)cc(=O)[nH]2)nc2ccccc12 | 5.68 µM (inactive)
Cn1cnc([N+](=O)[O-])c1S(=O)(=O)c1ccc(Cl)cc1 | 7.04 µM (inactive)
Cc1cc2c3c(c1)C(C)(c1ccccc1)CC(C)(C)N3C(=O)C21C(C#N)=C(N)OC2=C1C(=O)CC(C)(C)C2 (stereo not given) | > 10 µM (inactive)
O=C(O)c1cccc(COc2ccccc2Cl)c1 | 6.05 µM (inactive)
COc1ccc(/C=C2/C(=O)ON=C2c2ccccc2)cc1OC | > 10 µM (inactive)
COc1ccc(NC(=O)/C(Cl)=C(/Cl)S(=O)(=O)Cc2ccc(C)cc2)cn1 | > 10 µM (inactive)
O=C(Nc1ccc([N+](=O)[O-])cc1)Nc1nc(-c2ccc(Cl)s2)cs1 | 2.28 µM
Cn1cnc([N+](=O)[O-])c1S(=O)(=O)c1cccc(Cl)c1 | 8.11 µM (inactive)
COc1ccc2c(C)nc(Nc3nc(C)c(C)c(=O)[nH]3)nc2c1 | 9.72 µM (inactive)
CC(C)NC(=O)c1ccccc1NC(=O)/C=C/c1cccc([N+](=O)[O-])c1 | 5.83 µM (inactive)
O=S(=O)(Nc1cc(Sc2cccc3cccnc23)c(O)c2ccccc12)c1ccc(F)cc1 | 2.72 µM
CC(C)Oc1cc(NC(=O)CS(=O)CC(=O)Nc2cccc(C(F)(F)F)c2)c(Cl)cc1Cl (stereo not given) | 7.99 µM (inactive)
Cc1ccccc1Oc1cc(-n2ncc(Cl)c(Cl)c2=O)ncn1 | 2.08 µM
CCc1ccc(OCC(=O)NC(NC(=S)Nc2ccccc2)C(Cl)(Cl)Cl)cc1 (stereo not given) | 8.12 µM (inactive)
CC[C@@H]1CC=C[C@H]2[C@H]1C(=O)N(Cc1ccccc1)[C@H]2c1ccoc1 | 9.62 µM (inactive)
COc1ccc(/C=N\NC(=O)COc2ccc(C(C)(C)C)cc2)cc1Cn1nc(C)cc1C | 2.99 µM
O=c1c(Cl)c(Cl)cnn1-c1ccccc1 | 9.45 µM (inactive)
CCCCc1ccc(NC(=S)Nc2ccc(Cl)c(S(=O)(=O)N(C)C)c2)cc1 | > 10 µM (inactive)

Compound | IC50
C[C@H](NC(=O)c1[nH]cnc1C(=O)Nc1ccc(CNC(=O)OC(C)(C)C)cc1)C(=O)OC(C)(C)C | > 10 µM (inactive)
O=C1CC(c2ccccc2)CC(O)=C1C=Nc1cccc(Cl)c1 (stereo not given) | 5.16 µM
COc1cc(-c2nc3ccc4ccccc4c3c3c2CCC3)cc(OC)c1O | > 10 µM (inactive)
Cc1cc(C2(c3ccc(O)c(C)c3)C(=O)Nc3ccccc32)ccc1O | > 10 µM (inactive)
Oc1ccc(N=Nc2cccc(C(F)(F)F)c2)cc1C=Nc1ccc(N2CCOCC2)cc1 | 6.97 µM (inactive)
Cc1ccc(N(c2ncnc(N)c2[N+](=O)[O-])C2CCCCC2)cc1 | > 10 µM (inactive)
CCCNC(=O)c1nnsc1S(=O)c1ccc(Cl)cc1 (stereo not given) | 5.55 µM (inactive)
CC1(c2ccccc2)CC(C)(C)N2C(=O)/C(=C3\SC(=S)NC3=O)c3cccc1c32 (stereo not given) | 6.98 µM (inactive)
CNc1ccc2oc(C[C@H]3O[C@@]4(CC[C@H]3C)O[C@H]([C@H](C)C(=O)c3ccc[nH]3)[C@H](C)C[C@H]4C)nc2c1C(=O)O | < 0.16 µM
COc1oc(-c2ccc(Cl)cc2)nc1C(F)(F)F | 1.29 µM
O=c1c2ccccc2nc2n1CCN2Cc1ccc(Cl)cc1 | 9.8 µM (inactive)
Cc1cccc(OCc2n(CC(=O)OC3CC(C)CCC3C(C)C)c3ccccc3[n+]2C)c1 (stereo not given) | > 10 µM (inactive)
O=C(Nc1ccccc1)C1=C(c2ccccc2)S(=O)(=O)CCS1(=O)=O | 9.67 µM (inactive)
Cc1ccc2nc(NC(=O)C3CCN(S(=O)(=O)c4cc([N+](=O)[O-])ccc4Cl)CC3)sc2c1 | 3.51 µM
C=C(C=O)CC1CC(O)[C@]2(C)OC3CC4OC5C[C@]6(C)O[C@]7(C)CCC8OC9C[C@]%10(C)OC%11C(C)=CC(=O)OC%11CC%10OC9C[C@@H](C)C8OC7CC6O[C@]5(C)CC5OC5C4OC3CC2O1 (stereo not given in full) | 0.82 µM
Cc1cc(Cl)n2c(nc3ccccc32)c1C#N | > 10 µM (inactive)
Cc1ccc(Cl)cc1NC1=C/C(=N\S(=O)(=O)c2cccs2)c2ccccc2C1=O | 3.94 µM
O=C(NCc1ccccc1Cl)c1ccc(S(=O)(=O)Nc2cccc(C(F)(F)F)c2)cc1 | > 10 µM (inactive)
Cc1ccc(C)c(OCc2ccc(C(=O)N3N=C(C(F)F)CC3(O)C(F)F)o2)c1 (stereo not given) | 2.89 µM
CC(C)(C)c1ccc(C(=O)Nc2ccc(CC(=O)O)cc2)o1 | < 0.16 µM
COC(=O)c1cc(NC(=S)Nc2cc(Cl)cc(Cl)c2)cc(C(=O)OC)c1 | > 10 µM (inactive)
CCCCCCN1C=CC(=C2C(=O)c3ccccc3C2=O)C=C1 | 6.36 µM (inactive)
CC(C)(C)OC(=O)N[C@@H](Cc1ccccc1)c1nnc(S(=O)(=O)Cc2ccccc2)o1 | 5.59 µM (inactive)
CC(C)(C)OC(=O)CNC(=O)c1[nH]cnc1C(=O)Nc1ccc(Cl)cc1 | 4.69 µM (inactive)
CCOc1ccc(/C=N/NC(=O)c2cc(-c3ccco3)nc3ccccc23)cc1 | 5.15 µM (inactive)
Cc1ccc(-n2ncc(Br)c(Br)c2=O)cc1 | 4.78 µM
S=C(Nc1ccccc1)Nc1ccc(OCc2ccc(Cl)cc2Cl)cc1 | 0.33 µM

Compound | IC50
Cc1ccc(OCC(=O)N2CCN(c3nnc(-c4ccc(C)cc4)c4ccccc34)CC2)cc1 | 8.38 µM (inactive)
O=C1c2[nH]nc(-c3ccccc3O)c2C(c2cccc(Cl)c2)N1Cc1ccco1 (stereo not given) | 9.62 µM (inactive)
Cc1cc(Cl)ccc1OCc1n[nH]c(=S)n1C1CCCCC1 | > 10 µM (inactive)
Cc1ccc2c(c1)c1c(n2CC(O)Cn2c(C)nc3ccccc32)CCCC1 (stereo not given) | 6.68 µM (inactive)
CC(=O)C1=C(c2ccc(Br)cc2)C(=O)c2ccccc2C1=O | 5.57 µM (inactive)
COc1cccc(-n2nnnc2S(C)(=O)=O)c1 | 5.51 µM (inactive)
CC(C)Cc1ccc(C(C)C(=O)Nc2nccs2)cc1 (stereo not given) | > 10 µM (inactive)
COc1ccc(-c2cnc(OC(C)(C)C)nc2OC(C)(C)C)cc1OC | 4.6 µM (inactive)
CCCCCCn1c(=O)c(C(=O)Nc2cnccn2)c(O)c2ccccc21 | 2.64 µM
Cc1nc(Nc2ccc(F)cc2)[nH]c(=O)c1CCC(C)C | 2.43 µM
COc1cc(/C=C2\COC/C(=C\c3cc(OC)c(OC)c(OC)c3)C2=O)cc(OC)c1OC | 3.46 µM
CCCN1C=CC(=C2C(=O)c3ccccc3C2=O)C=C1 | 1.78 µM (inactive)
CCOc1ccc(C(=O)C(CCC(CN(C)C)C(=O)c2ccc(OCC)cc2)CN(C)C)cc1 (stereo not given) | 9.69 µM (inactive)
O=C(/C=C/c1ccccc1)Nc1cccc(C(=O)O)c1 | 3.59 µM (inactive)
CC(=O)NCc1ccc(C(=O)CCl)s1 | 9.42 µM (inactive)
COC(=O)c1ccccc1NC1=C/C(=N\S(=O)(=O)c2cccs2)c2ccccc2C1=O | > 10 µM (inactive)
CC[C@@H](C)[C@H](NC(=O)OC(C)(C)C)c1nnc(S(=O)(=O)Cc2cc(C)ccc2C)o1 | > 10 µM (inactive)
Cc1ccc(NN2C(=O)C=C(c3ccc(Cl)cc3)C2=O)cc1 | 2.09 µM
O=C(Cn1c(C(F)(F)F)nc2ccccc21)N=Nc1c(O)[nH]c2ccc(Br)cc12 | > 10 µM (inactive)
CCOC(=O)N=Nc1c2ccccc2c2nc3no[nH]c3nc12 | 4.21 µM
O=C(Nc1ccc(Br)c(C(F)(F)F)c1)c1ccc(C(F)(F)F)cc1 | 9.82 µM (inactive)
CCc1ccc(/C=c2\s/c(=C\C(=O)C(C)(C)C)[nH]c2=O)cc1 | 9.29 µM (inactive)
CCOc1ccc(-c2nc(CSCC(=O)NCc3ccco3)c(C)o2)cc1 | < 0.16 µM
CN(C)c1ccc(C(CNS(=O)(=O)c2ccc(F)c(F)c2)c2c[nH]c3ccccc23)cc1 (stereo not given) | 6.39 µM (inactive)
NC(=O)CC(NC(=O)Cc1cccc2ccccc12)c1ccc(NCCOc2ccccc2)c([N+](=O)[O-])c1 (stereo not given) | 8.33 µM (inactive)
CCCOC(=O)c1ccc(Oc2cn[nH]c2-c2ccc(OCC)cc2O)cc1 | 9.56 µM (inactive)
